Data on six molecules can be found in ChEMBL document CHEMBL6182867, “Discovery of ultra short β-peptoids with selective activity against drug-resistant Mycobacterium tuberculosis” (Eur J Med Chem, 2025).

Structures are written as SMILES.

What all share (type): functional
Experiment [1] concerns Mycobacterium tuberculosis. The experiment is described as follows: Antitubercular activity against rifampin-resistant Mycobacterium tuberculosis H37Rv by microplate alamar blue assay. (The colour change of resazurin is a common sign of viable cells or microbes.)
Experiment [2] deals with Mycobacterium tuberculosis. Put plainly: Antitubercular activity against isoniazid-resistant Mycobacterium tuberculosis H37Rv by microplate alamar blue assay.
In experiment [3] the test system is Mycobacterium tuberculosis. Put plainly: Antitubercular activity against Mycobacterium tuberculosis H37Rv harboring LuxABCDE assessed as reduction in luminescence supplemented with fresh medium containing compound on day 2 and 5 by luminescence assay. As to conditions: 120 h, time 5 day.
For experiment [4], the system named is Mycobacterium tuberculosis. The experiment is described as follows: Synergistic antitubercular activity against Mycobacterium tuberculosis bedaquiline-resistant mutant 7 assessed as bedaquiline MIC=>90 at 0.8 ug/ml by microplate alamar blue assay (Rvb >2 uM). As to conditions: dose 0.8 µg/ml.
Experiment [5] relates to Mycobacterium tuberculosis. The experiment is described as follows: Synergistic antitubercular activity against Mycobacterium tuberculosis bedaquiline-resistant mutant H15 assessed as bedaquiline MIC=>90 at 0.8 ug/ml by microplate alamar blue assay (Rvb >2 uM). The following applies: dose 0.8 µg/ml.
For experiment [6], the system named is Mycobacterium tuberculosis. The experiment is described as follows: Synergistic antitubercular activity against Mycobacterium tuberculosis bedaquiline-resistant mutant H15 assessed as bedaquiline growth inhibition at 0.8 ug/ml by microplate alamar blue assay (reference value: 75%). As to conditions: dose 0.8 µg/ml.
Experiment [7] has as its system Mycobacterium tuberculosis. Put plainly: Synergistic antitubercular activity against Mycobacterium tuberculosis rifampin-resistant mutant assessed as rifampin MIC=>90 at 0.8 ug/ml by microplate alamar blue assay (Rvb >1 uM). The following applies: dose 0.8 µg/ml.
The test system of experiment [8] is Mycobacterium tuberculosis. Put plainly: Synergistic antitubercular activity against Mycobacterium tuberculosis rifampin-resistant mutant assessed as rifampin growth inhibition at 0.8 ug/ml by microplate alamar blue assay (reference value: 46%). The following applies: dose 0.8 µg/ml.
In experiment [9] the test system is Mycobacterium tuberculosis. The experiment is described as follows: Synergistic antitubercular activity against Mycobacterium tuberculosis isoniazid-resistant mutant assessed as isoniazid MIC=>90 at 0.8 ug/ml by microplate alamar blue assay (Rvb >8 uM). As to conditions: dose 0.8 µg/ml.
Experiment [10] concerns Mycobacterium tuberculosis. Put plainly: Synergistic antitubercular activity against Mycobacterium tuberculosis isoniazid-resistant mutant assessed as isoniazid growth inhibition at 0.8 ug/ml by microplate alamar blue assay (reference value: 0%). The following applies: dose 0.8 µg/ml.
The test system of experiment [11] is Mycobacterium tuberculosis. The experiment is described as follows: Synergistic antitubercular activity against Mycobacterium tuberculosis bedaquiline-resistant mutant 7 assessed as bedaquiline MIC=>90 at 0.4 ug/ml by microplate alamar blue assay (reference value: 0.9 uM). The following applies: dose 0.4 µg/ml.
Experiment [12] deals with Mycobacterium tuberculosis. The experiment is described as follows: Synergistic antitubercular activity against Mycobacterium tuberculosis bedaquiline-resistant mutant H15 assessed as bedaquiline MIC=>90 at 0.4 ug/ml by microplate alamar blue assay (Rvb >2 uM). The following applies: dose 0.4 µg/ml.
Experiment [13] relates to Mycobacterium tuberculosis. Put plainly: Synergistic antitubercular activity against Mycobacterium tuberculosis bedaquiline-resistant mutant H15 assessed as bedaquiline growth inhibition at 0.4 ug/ml by microplate alamar blue assay (reference value: 75%). The following applies: dose 0.4 µg/ml.
Experiment [14] has as its system Mycobacterium tuberculosis. The experiment is described as follows: Synergistic antitubercular activity against Mycobacterium tuberculosis rifampin-resistant mutant assessed as rifampin MIC=>90 at 0.4 ug/ml by microplate alamar blue assay (Rvb >1 uM). The following applies: dose 0.4 µg/ml.
Experiment [15] relates to Mycobacterium tuberculosis. The experiment is described as follows: Synergistic antitubercular activity against Mycobacterium tuberculosis rifampin-resistant mutant assessed as rifampin growth inhibition at 0.4 ug/ml by microplate alamar blue assay (reference value: 46%). As to conditions: dose 0.4 µg/ml.
The subject of experiment [16] is Mycobacterium tuberculosis. Put plainly: Synergistic antitubercular activity against Mycobacterium tuberculosis isoniazid-resistant mutant assessed as isoniazid MIC=>90 at 0.4 ug/ml by microplate alamar blue assay (Rvb >8 uM). As to conditions: dose 0.4 µg/ml.
For experiment [17], the system named is Mycobacterium tuberculosis. The experiment is described as follows: Synergistic antitubercular activity against Mycobacterium tuberculosis isoniazid-resistant mutant assessed as isoniazid growth inhibition at 0.4 ug/ml by microplate alamar blue assay (reference value: 0%). As to conditions: dose 0.4 µg/ml.

By MIC90 is commonly meant the lowest concentration that inhibits either 90% of growth or 90% of the strains tested, depending on the study. Higher therefore signals lower susceptibility. As usually defined, the EC90 is the concentration needed for an effect of 90%. In general, MIC refers to the least concentration at which growth counts as inhibited. As for `CC(C)N(C(=O)CCNCCC(c1ccccc1)c1ccccc1)C(C)C`, the figures for the MIC90 in experiment [1] and in experiment [2] were 3.32 µg/mL and 3.01 µg/mL, respectively. In addition, in experiment [3], the EC90 amounted to 9.93 µg/mL. Also, the MIC is 0.53 µM in experiment [4], over 2 µM in experiment [5], over 1 µM in [7] and over 8 µM in experiment [9]. For the same molecule, the figures for the “growth inhibition (GI)” value in experiment [6], in [8] and in [10] were 76%, 60% and 17%, respectively.

Regarding `CC(C)N(C(=O)CCNCCCC1CCCC1)C(C)C`, the values for the MIC90 in experiment [1] and in [2] were 1.78 µg/mL and 1.87 µg/mL, respectively. The EC90 in experiment [3] turned out to be 9.67 µg/mL. Besides, the MIC in [11] was 0.91 µM; in experiment [12] it was over 2 µM; in [14] it was over 1 µM; in [16] it was over 8 µM. Besides, the figures for the “growth inhibition (GI)” value in experiment [13], in [15] and in [17] were 72%, 47% and 0%, respectively.

As to `COc1nc2ccc(Br)cc2cc1[C@@H](c1ccccc1)[C@@](O)(CCN(C)C)c1cccc2ccccc12` [BEDAQUILINE], in experiment [3], the EC90 was 360 nM.

For `NNC(=O)c1ccncc1` [ISONIAZID], the MIC90 in [1] is 0.32 µM; in experiment [2] it was over 8 µM.

As to `CC(=O)NC[C@H]1CN(c2ccc(N3CCOCC3)c(F)c2)C(=O)O1` [LINEZOLID], the MIC90 in experiment [1] was found to be 1.14 µM; in [2], 0.94 µM.

For the molecule `CO[C@H]1/C=C/O[C@@]2(C)Oc3c(C)c(O)c4c(O)c(c(/C=N/N5CCN(C)CC5)c(O)c4c3C2=O)NC(=O)/C(C)=C\C=C\[C@H](C)[C@H](O)[C@@H](C)[C@@H](O)[C@@H](C)[C@H](OC(C)=O)[C@@H]1C` [RIFAMPIN], the MIC90 was over 1 µM in experiment [1] and 0.03 µM in experiment [2].
